# Assays:
# 3T3-101P3A11 tumors = assay: Subcutaneous growth of 3T3-101P3A11 tumors in SCID mice; format: in vivo
# Experimental: (2) Regulated expression under control of an inducible vector system, such as ecdysone, tet, etc., can be used provided such promoters are compatible with the host cell systems. […] FIG. 21 compares subcutaneous growth of control 3T3-neo and 3T3-101P3A11 cells. One million cells stably expressing neo or 101P3A11 were injected subcutaneously in SCID mice along with matrigel. Tumor volume was evaluated by caliper measurements. […] Additionally, SCID mice were implanted with the same 3T3-101P3A11 cells orthotopically in the prostate to determine if 101P3A11 has an effect on local growth in the prostate or on the ability of the cells to metastasize, specifically to lungs or lymph nodes. […] In an analogous manner, cells can be implanted orthotopically in the bladder, colon or kidney. (Saffran, D., et al., PNAS 10:1073-1078; Fu, X., et al., Int. J. Cancer, 1991, 49: p. 938-939; Chang, S., et al., Anticancer Res., 1997, 17: p. 3239-3242; Peralta, E. A., et al., J. Urol., 1999, 162: p. 1806-1811). The tumor enhancing effect of 101P3A11 was also observed when 101P3A11 is expressed in prostate cancer cells such as PC3 and introduced into the prostate of SCID mice (Figure M11). A 2.5 fold increase in tumor weight is observed in tumors expressing 101P3A11 relative to control cells.
# Furthermore, these assays is useful to confirm the anti-101P3A11 inhibitory effects of candidate therapeutic compositions, such as for example, 101P3A11 antibodies or intrabodies, and 101P3A11 antisense molecules or ribozymes, or 101P3A11 directed small molecules. In FIG. 22, we depict the effect of a small molecule, pertussis toxin (PTX) on tumor formation by 3T3-101P3A11 cells. In this experiment, SCID mice were injected with 3T3-101P3A11 alone or in conjunction with PTX. Each mouse was given 5 doses of PTX at 3-4 days interval. Tumor volume was evaluated by caliper measurements. […] Similarly, treatment with the G-protein inhibitor suramin inhibits the growth of 3T3-101P3A11 tumors (Figure M13).
# PC3-101P3A11 cells = assay: Proliferation of PC3-101P3A11 and PC3-neo cells; format: cell-based, human; conditions: PC3-101P3A11 cells, dose dependent
# Experimental: Since adenylate cyclase activity modulates intracellular levels of cAMP and induce downstream signaling events such as activation of protein kinase A, calcium and ERK MAPK signaling (Pierce K. L., et al, Oncogene. 2001, 20: 1532), we determined that PTX, an inhibitor of adenylate cyclase signaling, prevents 101P3A11-mediated ERK phosphorylation along with inhibiting cAMP accumulation (FIG. 33 and FIG. 34). PC3-neo and PC3-101P3A11 cells were grown overnight in 0.1% FBS in media alone or in the presence of pertussis toxin (PTX). Cells were stimulated with 0.1% or 10% FBS (FIG. 33) or 10% FBS, EGF or GRP (FIG. 34). Cells were lysed and analyzed by Western blotting using anti-Phospho-ERK mAb. Expression of 101P3A11 mediated ERK phosphorylation by 10% FBS in PC3 cells, which was inhibited by PTX (FIG. 33 and FIG. 34).
# GPCR transmit their signal by activating trimeric G proteins. Once GPCRs are activated, the associated Ga subunit binds GTP, dissociates from the receptor and participates in downstream signaling events (Schild, D., and Restrepo, D. Physiol Rev. 1998, 78:429-66). In order to determine that inhibition of Ga subunits has an effect on 101P3A11 mediated cell growth, the effect of two Ga inhibitors on the proliferation of 3T3-101P3A11 cells was investigated. Control 3T3 and 3T3-101P3A11 cells were grown in the presence or absence of suramin or its derivative NF 449 (Sigma). Cells were analyzed for proliferation 72 hours later (FIG. 35). The experiment was performed in triplicate. […] This response was 101P3A11 specific as suramin and NF449 had no effect on the proliferation of control 3T3 cells. Similarly, inhibition of G protein activation by suramin and NF449 in PC3 cells inhibits the proliferation of PC3-101P3A11 cells grown in 5% FBS (Figure M4). […] This ERK phosohorylation and activation was inhibited by suramin and NF449 in PC3-101P3A11 and 3T3-101P3A11 cells. ERK phosphorylation was inhibited in a dose dependent manner in PC3-101P3A11 cells treated with suramin. […]
substance,measurement,setting,value
pertussis toxin [PTX],inhibition of tumor growth,"3T3-101P3A11 tumors; 5 doses at 3-4 days interval, tumor volume by caliper",inhibits tumor growth in a dose dependent manner
same,inhibition of tumor growth,"3T3-101P3A11 tumors; 5 doses at 3-4 days interval, tumor volume by caliper, listed as Pertussis toxin",inhibit
same,inhibition of tumor growth,"3T3-101P3A11 tumors; 5 time per week, after 25 days",70%
same,inhibition of proliferation,PC3-101P3A11 cells,inhibited

# Source: patent publication US8236510B2, “Protein showing enhanced expression in cancer cells” (Agensys, Inc., priority 1999, dated 2012)
